Where two headings read alike, the source gives them in different places.
Key:
[1] = literature, Ref. 1, 2 or 4; cited from earlier work
[2] = cobalt complex, dimeric oxygen complex; literature, Ref. 1 or 4; cited from earlier work
[3] = Potentiometric pH titration of polyalkylamines: protonation constants (basicity); format: physicochemical; conditions: 25°±0.1° C., ca. 1.5 mM PAA; Ref. 3 determined by applicants
From the text: the equilibrium constants for successive protonations of the PAA compounds are defined by
KHi =[PAA(H^+)i ]/[PAA(H^+)i-1 ] [H^+ ](10)
Where spectrophotometric characterization of a particular cobalt carrier compound has proven satisfactory, both the polyalkylamine and the cobalt carrier compound are characterized by a set of potentiometric pH titrations to determine the basicity of the ligating atoms, the formation constants KML and KMLH, and the apparent oxygen binding equilibrium constants.
Potentiometric titrations are performed using a Fisher or Cole-Palmer pH meter in a sealed, jacketed glass cell equipped with glass and calomel electrodes and with provisions for performing measurements under oxygen-free conditions. The cell is kept at a constant temperature of 25°±0.1° C. by circulating water from a thermostated bath through the cell jacket. The electrodes and pH meter are standardized with commercially available standard buffer solutions (Fisher Scientific). The polyalkylamine ligands and cobalt carrier compounds were each titrated potentiometrically by incrementally adding standard potassium hydroxide solution and recording the pH of the solution after each addition of base. Titrations of the cobalt carrier compounds are carried out under prepurified nitrogen or argon; titrations of oxygenated carrier compounds are performed under oxygen treated with Ascarite to remove carbon dioxide.
All solutions contained ca. 1.5 mM PAA; for titrations of cobalt complexes, the solutions contained, in addition, 1.5 mM CoCl2.
Typical results obtained as outlined above from pH titrations of selected polyalkylamines, cobalt carrier compounds, and oxygen complexes of cobalt carrier compounds are graphically depicted in FIGS. 2, 3, and 4, and summarized in Table III. The values shown in Table III, defined by equations (6)-(8) and (10). above, were derived either by direct measurement from the titration curves obtained, or determined by the iterative best fit of the data to a computer program such as that described by Harris, et al., Inorganic Chemistry, vol. 17, p. 889, 890 (1978). Generally, although the latter values are considered to be more reliable, values obtained by either methods are approximately the same and sufficient for the present evaluation.

[4] = Cyclic voltammetry of Co(PAA)n+ carrier compounds; format: physicochemical; set-up: key to ΔE / EPA / EPC: N.O.: not observed due to low electrochemical activity; conditions: 1.0 mM PAA
Experimental: Cyclic voltammentry experiments were performed under nitrogen or iar for the unoxygenated or oxygenated carrier compounds, respectively, in a cell having a platinum wire auxiliary electrode, a silver-silver chloride reference electrode, and suitable working electrode. The potential between the auxiliary and working electrodes was varied with a Princeton Applied Research (Princeton, N.J.) Scanning Potentiostate at 50 mV/s from a suitable initial with a suitable initial scan direction (Scan Dir.), depending on the electrochemical potentials if interest. All solutions contained 1 mM CoCl2, 1 mM or 1.5 mM PAA, and a supporting electrolyte, and were buffered to a suitable pH, usually about the initial working pH.
Cyclic voltammetry enables the estimation of anode (EPA) and cathode (EPC) half cell potentials, the cell potential ΔE=(EPA -EPC), and an approximate formal reaction potential […]. In addition, estimates of the rate of electron transfer to a particular electrode and electrochemical reversibility of the reaction can be obtained.

[5] = UV-visible spectroscopic evaluation of oxygen complex formation by cobalt carrier compounds; format: binding
From the text: Initially, solutions of particular carrier compounds are monitored by UV-visible spectroscopy to determine whether the carrier compound forms oxygen complexes of sufficient stability as to be potentially useful in processes according to the present invention. UV-visible spectra of carrier compounds are also observed as a function of the pH to determine the pH range, if any, over which the carrier compounds bind oxygen without decomposition. The initial pH for use in further experiments (the "Working pH") is defined as one pH unit above that at which the proportion of carrier compound-oxygen complex is about 90% or more of the maximum formed under ca. 0.2 atm oxygen, as determined by this spectroscopic examination. […] An initial working pH can also be determined from potentiometric experiments on the oxygen complexes of cobalt carrier compounds, as will be discussed below.
The necessary UV and visible spectra necessary for this evaluation are obtained with any of a variety of commercially available spectrophotometers. The solution to be measured is prepared in or transferred to a suitable quartz cell with provision for the exclusion of oxygen. […] Spectra are then recorded under both oxygen free and oxygenated conditions at each of the desired pH values.

[6] = ox, pH 6.0, 0.5M KCl/0.1M K2HPO4, glassy carbon, Einitial +0.1 V, scan +
[7] = deox, pH 10.1, 0.5M KCl/0.1M K2HPO4, glassy carbon, Einitial +0.15 V, scan -
[8] = ox, pH 10.1, 0.5M KCl/0.1M K2HPO4, glassy carbon, Einitial +0.1 V, scan +
[9] = ox, pH 3.0, 0.5M KCl/0.1M K2HPO4, glassy carbon, Einitial -0.05 V, scan +

c1c[nH]c(CNCCCNCCCNCc2ncc[nH]2)n1 [compound 73]
Log K1 [1]: 9.76 | Log K2 [1]: 7.22 | Log K3 [1]: 6.51 | Log K4 [1]: 3.92 | Log K5 [1]: 3.29 | Log K02 [2]: 8.63

c1ccc(CCNCc2cccc(CNCCc3ccccn3)n2)nc1 [compound 63]
Log K1 [3]: 8.75 | Log K2 [3]: 7.61 | Log K3 [3]: 3.81 | EPA [4, 6]: N.O. | EPC [4, 6]: N.O. | ΔE [4, 6]: N.O.

CN(CCCNCc1ccccn1)CCCNCc1ccccn1 [PAA No. 76, 1,11-Bis(2-Pyridyl)-6-Methyl-2,6,10-Triazaundecane]
oxygen binding of the cobalt complex ([5]; cobalt complex of the PAA, spectrophotometric analysis, under conditions of interest): does not appear to bind oxygen

c1ccc(CNCCCCNCCCNCc2ccccn2)nc1 [compound 78]
Log K1 [3]: 9.36 | Log K2 [3]: 7.69 | Log K3 [3]: 6.60 | EPA [4, 7]: 0.18 V | EPC [4, 7]: 0.1 V | E° [4, 7]: 0.14 V | ΔE [4, 7]: 0.08 V | EPA [4, 8]: 0.185 V | EPC [4, 8]: 0.055 V | E° [4, 8]: 0.12 V | ΔE [4, 8]: 0.13 V

Cc1cccc(CNCCCNCCCNCc2cccc(C)n2)n1 [compound 81]
Log K1 [3]: 9.44 | Log K2 [3]: 7.40 | Log K3 [3]: 6.25 | Log K4 [3]: 3.40

c1ccc(CNCc2cccc(CNCc3ccccn3)n2)nc1 [PAA No. 21, 2,6-Bis(l-(3-(2-Pyridyl)-2-Azapropyl))Pyridine]
oxidation of the cobalt ion of the Co(II) complex ([5]; Co(II) complex of the PAA): relatively rapid, irreversible oxidation of the cobalt ion to Co(III)

Cc1cccc(CNCCNCCNCc2cccc(C)n2)n1 [compound 80]
Log K1 [3]: 8.52 | Log K2 [3]: 6.72 | Log K3 [3]: 4.1 | Log K4 [3]: 3.28 | Log K5 [3]: 2.86

NCCNCc1cccc(CNCCN)n1 [compound 69]
Log K1 [3]: 9.31 | Log K2 [3]: 8.6 | Log K3 [3]: 5.9 | Log K4 [3]: 4.74 | EPA [4, 9]: 0.5 V | EPC [4, 9]: -0.2 V | ΔE [4, 9]: 0.7 V

From patent US5410052A, “Symmetrical and unsymmetrical polyalkylamine metal complexes for ligand extraction and generation” (The Regents of the University of California, priority 1990, dated 1995)
